Laboratory results taken from the Bradley open melting point set (2014).
Values joined by “and” are separate entries in the source; they are usually repeats but may differ in a detail not shown here. Identical values can stand only once. Counter-ions that a name gives are not always drawn.

| melting point | SMILES |
| --- | --- |
| 33 °C | COC(=O)n1ccc(C)n1 [methyl 3-methyl-1H-pyrazole-1-carboxylate] |
| 79 °C | COC(=O)c1cccc([N+](=O)[O-])c1 [methyl 3-nitrobenzoate] |
| 127 °C | COC(=O)c1sc(Br)c(Br)c1O [methyl 4,5-dibromo-3-hydroxythiophene-2-carboxylate] |
| 145 °C | COCC(CCC(=O)OC)N1CC=CC1 (stereo unspecified) [methyl 4-(2,5-dihydro-1H-pyrrol-1-yl)-5-methoxypentanoate] |
| 86 °C | COC(=O)c1ccc(C(C)=O)cc1 [methyl 4-acetylbenzoate] |
| 112 °C | COC(=O)c1ccc(N)cc1 [methyl 4-aminobenzoate] [listing 1 of 2 here] |
| 114 °C | COC(=O)c1ccc(N)cc1 [methyl 4-aminobenzoate] [listing 2 of 2 here] |
| 131 °C and 127 °C | COC(=O)c1ccc(O)cc1 [methyl 4-hydroxybenzoate] |
| 50 °C | COC(=O)c1ccc(OC)cc1 [methyl 4-methoxybenzoate] |
| 141 °C | COC(=O)c1cc2c(OC)cccc2[nH]1 [methyl 4-methoxyindole-2-carboxylate] |
| 97 °C | COC(=O)c1cncc(Br)c1 [methyl 5-bromonicotinate] |
| 49 °C | COC(=O)c1cc(Cl)ccc1[N+](=O)[O-] [methyl 5-chloro-2-nitrobenzoate] |
| 105 °C | COC(=O)CCC(C)C1CCC2C3C(O)C(O)C4CCCCC4(C)C3CCC12C (stereo unspecified) [methyl 6,7-dihydroxycholan-24-oate] |
| 155 °C | COC(=O)c1ccc(N)nc1 [methyl 6-aminonicotinate] |
| 122 °C | COC(=O)c1ccc2cc(Br)ccc2c1 [methyl 6-bromo-2-naphthoate] |
| 147 °C | COC(=O)N/C=C/c1ccccc1[N+](=O)[O-] [methyl [(E)-2-(2-nitrophenyl)ethenyl]carbamate] |
| -12 °C | COC(=O)c1ccccc1 [methyl benzoate] |
| 72 °C | COC(=O)NN [methyl carbazate] |
| -23 °C | COC(=O)CC#N [methyl cyanoacetate] |
| -100 °C | COC=O [methyl formate] |
| 8 °C | COC(=O)c1ccncc1 [methyl isonicotinate] |
| 39 °C | COC(=O)CC(N)=O [methyl malonamate] |

| melting point | SMILES |
| --- | --- |
| -113 °C | CCCSC [methyl n-propyl sulfide] |
| 114 °C | COC(=O)c1ccc(N)cc1 [methyl p-aminobenzoate] |
| 131 °C | COC(=O)c1ccc(O)cc1 [methyl p-hydroxybenzoate] |
| 181 °C | CN(C)c1ccc(/N=N/c2ccccc2C(=O)O)cc1 [methyl red] |
| 131 °C | COC(=O)c1ccc(O)cc1 [methyl-p-hydroxybenzoate] |
| 84 °C | COC(=O)c1cc(OC)c(OC)c(OC)c1 [methyl_3,4,5-trimethoxybenzoate] |
| 33 °C | COC(=O)c1cccc(Br)c1 [methyl_3-bromobenzoate] |
| 74 °C | COC(=O)c1cccc(O)c1 [methyl_3-hydroxybenzoate] |
| 81 °C | COC(=O)c1ccc(Br)cc1 [methyl_4-bromobenzoate] |
| 128 °C | COC(=O)c1ccc(O)cc1 [methyl_4-hydroxybenzoate] |
| 50 °C | COC(=O)c1ccc(OC)cc1 [methyl_4-methoxybenzoate] |
| 96 °C | COC(=O)c1ccc([N+](=O)[O-])cc1 [methyl_4-nitrobenzoate] |
| -12 °C | COC(=O)c1ccccc1 [methyl_benzoate] |
| 64 °C | COC(=O)c1ccc(CC#N)cc1 [methyl_p-cyanomethyl_benzoate] |
| 128 °C | O=C(S)CCCC(=O)S [methylenebis(thioacetic acid)] |
| 131 °C | COC(=O)c1ccc(O)cc1 [methylparaben] |
| -78 °C | C[Si](Cl)(Cl)Cl [methyltrichlorosilane] |
| 147 °C | CCN(CC)CCNC(=O)c1cc(Cl)c(N)cc1OC [metoclopramide] |
| 360 °C | CO[C@@]12[C@H](COC(N)=O)C3=C(C(=O)C(C)=C(N)C3=O)N1C[C@@H]1N[C@@H]12 [mitomycin c] |
| 118 °C | Cc1ccc(C2(O)CCN(CCCC(=O)c3ccc(F)cc3)CC2)cc1 [moperone] |
| 149 °C | Cc1c(CN2CCOC(c3ccccc3)C2C)c(=O)n(-c2ccccc2)n1C (stereo unspecified) [morazone] |
| 226 °C | O[C@H]1[C@H](O)[C@@H](O)[C@H](O)[C@@H](O)[C@H]1O [myo-inositol] |

| melting point | SMILES |
| --- | --- |
| 180 °C | O=C1CCC(=O)N1Br [n-bromosuccinimide] |
| -63 °C | CCNc1ccccc1 [n-ethylaniline] |
| -40 °C | CNC=O [n-methylformamide] |
| 229 °C | CCn1cc(C(=O)O)c(=O)c2ccc(C)nc21 [nalidixic acid] [listing 1 of 2 here] |
| 230 °C | CCn1cc(C(=O)O)c(=O)c2ccc(C)nc21 [nalidixic acid] [listing 2 of 2 here] |
| 208 °C | NC(=O)c1cccc2ccccc12 [naphthalene-1-carboxamide] |
| 87 °C | COc1ccc2cc(C(C)CO)ccc2c1 (stereo unspecified) [naproxol] |
| 237 °C | O=C(O)c1cccnc1 [nicotinic acid] [listing 1 of 2 here] |
| 237 °C (2×) and 238 °C | O=C(O)c1cccnc1 [nicotinic acid] [listing 2 of 2 here] |
| 46 °C | C1=CC2CCC1C2 [norbornene] |
| 138 °C | CC(=O)Oc1ccccc1C(=O)O [o-acetylsalicylic acid] |
| 83 °C | Nc1ccccc1CO [o-amino_benzyl_alcohol] |
| 165 °C | NC(=O)c1ccccc1Cc1ccccc1 [o-benzylbenzamide] |
| 30 °C | Nc1ccccc1Br [o-bromoaniline] |
| 43 °C | O=[N+]([O-])c1ccccc1Br [o-bromonitrobenzene] |
| 11 °C | O=Cc1ccccc1Cl [o-chlorobenzaldehyde] |
| -35 °C | Cc1ccccc1Cl [o-chlorotoluene] |
| 115 °C | N#CCc1ccccc1C(=O)O [o-cyanomethyl_benzoic_acid] |
| 7 °C | Brc1ccccc1Br [o-dibromobenzene] |
| -31 °C | CCc1ccccc1CC [o-diethylbenzene] |
| 142 °C | NC(=O)c1ccccc1O [o-hydroxybenzamide] |

| SMILES | melting point |
| --- | --- |
| COC(=O)c1ccc(OC)c(OC)c1 [methyl_3,4-dimethoxybenzoate] | 60 °C |
| C=CC(=O)OC [methyl_acrylate] | -75 °C |
| O=C4\C=C3/[C@]([C@H]2CC[C@]1([C@@H](CC[C@@]1(O)C)[C@@H]2CC3)C)(C)CC4 [methyltestosterone] | 163 °C |
| CCC1(CC)C(=O)NCC(C)C1=O (stereo unspecified) [methyprylon] | 75.5 °C |
| Cc1sc2ccccc2c1CC1=NCCN1 [metizoline] | 156 °C |
| COc1ccc(NC(=O)N(C)C)cc1Cl [metoxuron] | 127 °C |
| NC(=O)CS(=O)C(c1ccccc1)c1ccccc1 (stereo unspecified) [modafinil] | 164 °C |
| CN(C)c1ccccc1 [n,n-dimethylaniline] | 3 °C |
| c1ccc2cc3cc4ccccc4cc3cc2c1 [naphthacene] | 357 °C |
| CC(=O)Oc1ccccc1C(N)=O [o-acetoxybenzamide] | 138 °C |
| Clc1ccccc1Cl [o-dichlorobenzene] | -17 °C |
